What all share (test): stopped-flow CO2 hydrase assay
Common to all, as to type: biochemical

One assay concerns the target T1, hCA IX (Homo sapiens, UniProt Q16790).
T1 construct: gene CA9; recombinant, made in-house
An excerpt:
stopped-flow CO2 hydrase assay on hCA IX

For a further assay, the target named is T2, hCA XII (Homo sapiens, UniProt O43570).
T2 construct: gene CA12; recombinant, made in-house
From the text:
stopped-flow CO2 hydrase assay on hCA XII

A further assay addresses T3, hCA I (Homo sapiens, UniProt P00915).
T3 construct: gene CA1; purchased from Merck; cytosolic isoform; construct not described
An excerpt:
stopped-flow CO2 hydrase assay on hCA I

For a further assay, the target named is T4, hCA II (Homo sapiens, UniProt P00918).
T4 construct: gene CA2; purchased from Merck; cytosolic isoform; construct not described
An excerpt:
stopped-flow CO2 hydrase assay on hCA II

Setting [1] is: CO2 substrate; […] HEPES pH […] Na2SO4, […] min preincubation at room temperature.

Where two headings read alike, the source gives them in different places.

The term Ki denotes a measure of affinity in units of concentration, obtained from inhibition or displacement.

T2 sequence (O43570 25-354 limits assumed): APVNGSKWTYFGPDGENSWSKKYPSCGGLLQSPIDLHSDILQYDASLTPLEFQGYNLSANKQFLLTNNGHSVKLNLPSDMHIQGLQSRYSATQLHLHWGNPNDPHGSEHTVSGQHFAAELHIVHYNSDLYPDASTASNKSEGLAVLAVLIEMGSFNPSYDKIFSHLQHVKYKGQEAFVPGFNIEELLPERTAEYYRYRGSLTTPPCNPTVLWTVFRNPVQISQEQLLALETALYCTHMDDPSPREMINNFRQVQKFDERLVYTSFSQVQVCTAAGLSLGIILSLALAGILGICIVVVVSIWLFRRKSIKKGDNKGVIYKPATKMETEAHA
T3 sequence (P00915 2-261): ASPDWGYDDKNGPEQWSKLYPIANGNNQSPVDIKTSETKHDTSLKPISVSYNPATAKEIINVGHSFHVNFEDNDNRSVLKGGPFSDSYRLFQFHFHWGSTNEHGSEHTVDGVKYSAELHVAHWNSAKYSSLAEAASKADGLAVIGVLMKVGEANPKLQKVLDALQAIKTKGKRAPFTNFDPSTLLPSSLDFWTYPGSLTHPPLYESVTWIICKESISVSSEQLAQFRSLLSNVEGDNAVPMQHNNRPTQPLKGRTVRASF

As to `NS(=O)(=O)c1cc(C(=O)O)c(Cl)cc1Cl` [compound 1, 2,4‐dichloro‐5‐sulfamoylbenzoic acid], the inhibitory constant (Ki) was determined as 2.6 nM on hCA IX (setting [1]), 7.5 nM on hCA XII (setting [1]), 0.52 nM at hCA I (setting [1]) and 0.33 nM at hCA II (setting [1]).
As for `Nc1ccc(S(=O)(=O)N2CCN(C(=O)c3cc(S(N)(=O)=O)c(Cl)cc3Cl)CC2)cc1` [compound 9, 5‐({4‐[(4‐aminophenyl)sulfonyl]piperazin‐1‐yl}carbonyl)‐2,4‐dichlorobenzenesulfonamide], the Ki worked out at 152 nM at hCA IX, 6.9 nM on hCA XII, 5.7 nM at hCA I and 2.6 nM at hCA II.
Consider `NS(=O)(=O)c1cc(C(=O)N2CCN(S(=O)(=O)c3ccc(Cl)cc3)CC2)c(Cl)cc1Cl` [compound 7, 2,4‐dichloro‐5‐({4‐[(4‐chlorophenyl)sulfonyl]piperazin‐1‐yl}carbonyl)benzenesulfonamide], for which the Ki on hCA IX was 35.8 nM; at hCA XII, 5.2 nM; on hCA I it was 8.2 nM; on hCA II it was 3.4 nM.
In the case of `Nc1ccccc1S(=O)(=O)N1CCN(C(=O)c2cc(S(N)(=O)=O)c(Cl)cc2Cl)CC1` [compound 14, 5‐({4‐[(2‐aminophenyl)sulfonyl]piperazin‐1‐yl}carbonyl)‐2,4‐dichlorobenzenesulfonamide], the Ki came out at 11.4 nM on hCA IX, 9.6 nM on hCA XII, 5.4 nM at hCA I and 2.8 nM at hCA II.
Turning to `NS(=O)(=O)c1cc(C(=O)N2CCN(S(=O)(=O)c3ccccc3)CC2)c(Cl)cc1Cl` [compound 4, 2,4‐dichloro‐5‐{[4‐(phenylsulfonyl)piperazin‐1‐yl]carbonyl}benzenesulfonamide], the Ki on hCA IX was found to be 39.7 nM; at hCA XII, 7.1 nM; at hCA I, 9.4 nM; at hCA II it was 7.4 nM.
As to `NS(=O)(=O)c1cc(C(=O)N2CCN(S(=O)(=O)c3ccc(Cl)c(Cl)c3)CC2)c(Cl)cc1Cl` [compound 15, 2,4‐dichloro‐5‐({4‐[(3,4‐dichlorophenyl)sulfonyl]piperazin‐1‐yl}carbonyl)benzenesulfonamide], the Ki on hCA IX worked out at 39 nM; on hCA XII it was 9.1 nM; at hCA I, 7.1 nM; at hCA II, 5.7 nM.
For `CC(C)(C)OC(=O)N1CCN(C(=O)c2cc(S(N)(=O)=O)c(Cl)cc2Cl)CC1` [compound 2, Tert‐butyl 4‐[(2,4‐dichloro‐5‐sulfamoylphenyl)carbonyl]piperazine‐1‐carboxylate], the Ki at hCA IX stood at 40.1 nM; at hCA XII it was 50.1 nM; on hCA I, 85.7 nM; at hCA II it was 3.9 nM.
For `NS(=O)(=O)c1cc(C(=O)N2CCN(S(=O)(=O)c3cccc([N+](=O)[O-])c3)CC2)c(Cl)cc1Cl` [compound 11, 2,4‐dichloro‐5‐({4‐[(3‐nitrophenyl)sulfonyl]piperazin‐1‐yl}carbonyl)benzenesulfonamide], in that order: 37.7 nM, 7.8 nM, 6.2 nM and 6.6 nM.
For `COc1ccc(S(=O)(=O)N2CCN(C(=O)c3cc(S(N)(=O)=O)c(Cl)cc3Cl)CC2)cc1` [compound 6, 2,4‐dichloro‐5‐({4‐[(4‐methoxyphenyl)sulfonyl]piperazin‐1‐yl}carbonyl)benzenesulfonamide], in that order: 40.6 nM, 11.6 nM, 9.1 nM and 2.8 nM.
For `CC(=O)Nc1ccc(S(=O)(=O)N2CCN(C(=O)c3cc(S(N)(=O)=O)c(Cl)cc3Cl)CC2)cc1` [compound 10, 5‐({4‐[(4‐acetylaminophenyl)sulfonyl]piperazin‐1‐yl}carbonyl)‐2,4‐dichlorobenzenesulfonamide], the Ki on hCA IX turned out to be 40.4 nM; at hCA XII, 7.2 nM; at hCA I, 8 nM; on hCA II, 5.4 nM.
The corresponding values for `Nc1cccc(S(=O)(=O)N2CCN(C(=O)c3cc(S(N)(=O)=O)c(Cl)cc3Cl)CC2)c1` [compound 12, 5‐({4‐[(3‐aminophenyl)sulfonyl]piperazin‐1‐yl}carbonyl)‐2,4‐dichlorobenzenesulfonamide] are 26.3 nM, 5.4 nM, 5.8 nM and 0.8 nM.
On to `NS(=O)(=O)c1cc(C(=O)N2CCN(S(=O)(=O)c3ccccc3[N+](=O)[O-])CC2)c(Cl)cc1Cl` [compound 13, 2,4‐dichloro‐5‐({4‐[(2‐nitrophenyl)sulfonyl]piperazin‐1‐yl}carbonyl)benzenesulfonamide], for which the Ki on hCA IX was 28.9 nM; on hCA XII, 7.2 nM; on hCA I, 7.8 nM; on hCA II, 0.3 nM.
For the compound `NS(=O)(=O)c1cc(C(=O)N2CCN(S(=O)(=O)Cc3ccccc3)CC2)c(Cl)cc1Cl` [compound 16, 5‐{[4‐(benzylsulfonyl)piperazin‐1‐yl]carbonyl}‐2,4‐dichlorobenzenesulfonamide], the Ki on hCA IX was found to be 273 nM; on hCA XII, 0.87 nM; on hCA I, 0.54 nM; at hCA II, 0.07 nM.
Consider `NS(=O)(=O)c1cc(C(=O)N2CCN(S(=O)(=O)c3ccc([N+](=O)[O-])cc3)CC2)c(Cl)cc1Cl` [compound 8, 2,4‐dichloro‐5‐({4‐[(4‐nitrophenyl)sulfonyl]piperazin‐1‐yl}carbonyl)benzenesulfonamide], for which the Ki at hCA IX is 39.4 nM; at hCA XII, 7.9 nM; at hCA I it was 79.9 nM; on hCA II, 71.2 nM.
On to `Cc1ccc(S(=O)(=O)N2CCN(C(=O)c3cc(S(N)(=O)=O)c(Cl)cc3Cl)CC2)cc1` [compound 5, 2,4‐dichloro‐5‐({4‐[(4‐methylphenyl)sulfonyl]piperazin‐1‐yl}carbonyl)benzenesulfonamide], for which the Ki at hCA IX came to 340 nM; on hCA XII, 62.4 nM; on hCA I, 64 nM; on hCA II it was 29 nM.
